Laboratory results reported in patent US8772321B2, “Heteroannelated anthraquinone derivatives for inhibiting cancers” (National Defense Medical Center, priority 2008, dated 2014).

Experiments:
SV_UC—1 = assay: Cell toxicity in normal epithelial cell; type: cell-based
Source text: To investigate the cell proliferation inhibition effect of NSC745885 in cancer cells, we compared the cancer cell proliferation inhibition effect of the NSC745885 with well-know bladder anti-cancer agent “Emodin” and clinical cancer chemical therapy agent “Doxorubicin”. The experiment bladder cancer cell lines includes T24 (FIG. 9A, 9D) and MBT2 (FIG. 9 B, 9E). We also confirm the NSC745885 cell toxicity using the non-cancer cell fibroblast 3T3 (FIG. 9C) and normal epithelial cell SV_UC—1 (FIG. 9F).

Stem Cell Factor (SCF) = assay: SCF protein expression in cells; type: cell-based
Protocol: To investigate whether NSC745885 down-regulates SCF in cancer cells, we treated bladder cancer cell (MBT2, T24) and normal epithelial cell (SV_HUC—1) with NSC745885 for 24 hours and then analyzed the SCF protein level.
We investigated NSC745885's effect on SCF expression in different cancer cells, including bladder cancer (MBT2, T24), breast cancer (MCF-7, MDA-MB-453), prostate cancer (PC3, LNCaP), kidney cancer (786-O), and kidney epithelial cell (293T). We treatment these different cancer cells with (+) or without (−) the NSC745885 (5 μM), and then analyzed SCF protein level.

## O=C1c2ccccc2C(=O)c2c1ccc1nsnc21 [NSC745885, anthra[2,1-c][1,2,5]thiadiazole-6,11-dione]
SV_UC—1
  cell toxicity in normal cell: no cell toxicity
Stem Cell Factor (SCF); 5 μM, MBT2, T24, MCF-7, MDA-MB-453, PC3, LNCaP, 786-O, 293T
  SCF protein level: significantly decreased
Stem Cell Factor (SCF); MBT2, T24 and SV_HUC—1 cells, 24 hours, increasing concentrations
  SCF protein expression: suppressed
